Results from patent US20170107179A1 (Tetraphase Pharmaceuticals, Inc., priority 2010, published 2017).

How the values were obtained:
[1] = test system: Gram-negative and Gram-positive organisms (clinical isolates); assay: Broth microdilution MIC against clinical isolates (CLSI M7-A8), Table 9; assay type: cell-based
M. catarrhalis (n = 50) = assay: Broth microdilution MIC, respiratory pathogens (Table 13)
Gram-positive pathogens = assay: Broth microdilution MIC, respiratory/skin pathogens (Table 12)
S. aureus SA101 = assay type: cell-based; details: SA101, plates containing compound at 5× the MIC
S. pneumoniae SP106 = assay type: cell-based; details: SP106, plates containing compound at 5× the MIC, 5% sheep blood
H. influenzae HI551 = assay: Rat lung infection model; assay type: in vivo; details: H. influenzae intratracheal, 50 mg/kg orally at 5, 24, 48 hours
[2] = Staphylococcus aureus (MRSA PVL+), n=30
[3] = Stenotrophomonas maltophilia, n=29

Compound: Gentamicin
- MIC50 ([1]; Acinetobacter lwoffii, n=29): ≦0.25 μg/ml
- MIC90 ([1]; Acinetobacter lwoffii, n=29): 1 µg/mL
- MIC50 ([1]; Enterobacter aerogenes, n=30): ≦0.25 μg/ml
- MIC90 ([1]; Enterobacter aerogenes, n=30): 0.5 µg/mL
- MIC50 ([1]; Enterobacter cloacae, n=29): 0.5 µg/mL
- MIC90 ([1]; Enterobacter cloacae, n=29): >8 µg/mL
- MIC50 ([1]; Escherichia coli, n=40): 2 µg/mL
- MIC90 ([1]; Escherichia coli, n=40): >8 µg/mL
- MIC50 ([1]; Kiebsielia oxytoca, n=30): 0.5 µg/mL
- MIC90 ([1]; Kiebsielia oxytoca, n=30): 2 µg/mL
- MIC50 ([1]; Klebsiella pneumonia, n=27): >8 µg/mL
- MIC90 ([1]; Klebsiella pneumonia, n=27): >8 µg/mL
- MIC50 ([1]; Morganella morganii, n=30): 1 µg/mL
- MIC90 ([1]; Morganella morganii, n=30): >8 µg/mL
- MIC50 ([1]; Proteus vulgaris, n=29): 1 µg/mL
- MIC90 ([1]; Proteus vulgaris, n=29): >8 µg/mL
- MIC50 ([1]; Salmonella species, n=30): 0.5 µg/mL
- MIC90 ([1]; Salmonella species, n=30): 1 µg/mL
- MIC50 ([1]; Serratia marcescens, n=30): 0.5 µg/mL
- MIC90 ([1]; Serratia marcescens, n=30): 1 µg/mL
- MIC50 ([1]; Shigella species, n=30): 1 µg/mL
- MIC90 ([1]; Shigella species, n=30): 1 µg/mL
- MIC50 [1, 2]: 0.25 µg/mL
- MIC90 [1, 2]: 0.5 µg/mL
- MIC50 [1, 3]: >8 µg/mL
- MIC90 [1, 3]: >8 µg/mL
- MIC50 (M. catarrhalis (n = 50)): 0.12 µg/mL
- MIC90 (M. catarrhalis (n = 50)): 0.12 µg/mL
- MIC50 (Gram-positive pathogens; CoNS, MRCoNS (n = 26)): 0.25 µg/mL
- MIC90 (Gram-positive pathogens; CoNS, MRCoNS (n = 26)): > 8 µg/mL
- MIC50 (Gram-positive pathogens; CoNS, MSCoNS (n = 26)): 0.12 µg/mL
- MIC90 (Gram-positive pathogens; CoNS, MSCoNS (n = 26)): 0.25 µg/mL
- MIC50 (Gram-positive pathogens; E. faecalis, VAN NS (n = 48)): > 8 µg/mL
- MIC90 (Gram-positive pathogens; E. faecalis, VAN NS (n = 48)): > 8 µg/mL
- MIC50 (Gram-positive pathogens; E. faecalis, VAN S (n = 53)): > 8 µg/mL
- MIC90 (Gram-positive pathogens; E. faecalis, VAN S (n = 53)): > 8 µg/mL
- MIC50 (Gram-positive pathogens; E. faecium, VAN NS (n = 51)): 8 µg/mL
- MIC90 (Gram-positive pathogens; E. faecium, VAN NS (n = 51)): > 8 µg/mL
- MIC50 (Gram-positive pathogens; E. faecium, VAN S (n = 49)): 8 µg/mL
- MIC90 (Gram-positive pathogens; E. faecium, VAN S (n = 49)): > 8 µg/mL
- MIC50 (Gram-positive pathogens; S. aureus, MSSA (n = 50)): 0.25 µg/mL
- MIC90 (Gram-positive pathogens; S. aureus, MSSA (n = 50)): 0.5 µg/mL
- MIC50 (Gram-positive pathogens; S. saprophyticus (n = 36)): ≦0.06 mg/mL
- MIC90 (Gram-positive pathogens; S. saprophyticus (n = 36)): ≦0.06 mg/mL

Compound: CO[C@H]1/C=C/O[C@@]2(C)Oc3c(C)c(O)c4c(O)c(c(/C=N/N5CCN(C)CC5)c(O)c4c3C2=O)NC(=O)/C(C)=C\C=C\[C@H](C)[C@H](O)[C@@H](C)[C@@H](O)[C@@H](C)[C@H](OC(C)=O)[C@@H]1C [rifampin, reference compound]
- spontaneous resistance frequency (S. aureus SA101): 2.0×10^−8
- spontaneous resistance frequency (S. pneumoniae SP106): 2.88×10^−7

Compound: CC[C@H]1OC(=O)[C@H](C)[C@@H](O[C@H]2C[C@@](C)(OC)[C@@H](O)[C@H](C)O2)[C@H](C)[C@@H](O[C@@H]2O[C@H](C)C[C@H](N(C)C)[C@H]2O)[C@](C)(O)C[C@@H](C)CN(C)[C@H](C)[C@@H](O)[C@]1(C)O [Azithromycin, azithromycin, reference compound]
- reduction in lung CFU, oral comparator (H. influenzae HI551): 6.24±0.03 log10
